The subject of one data set is Y. lipolytica strains. Put plainly: Growth of yeasts in the presence of lactones. In kind it is cell-based, Yarrowia lipolytica. The settings on record: 0.1 to 1 g/L lactone; strains adapted to 3% NVR, especially Iss#137. From the text: FIG. 18 contains three line graphs showing the growth of selected yeasts in the presence of 0.1-1 g/L lactones (γ-butyrolactone, ε-caprolactone, and δ-valerolactone). Iss#125 is a S. cerevisiae control strain. Iss#134 is a Y. lipolytica strain isolated from plates after slow growth on 3% (v/v) NVR+YPD media. Iss#137 is a Y. lipolytica strain isolated from chemo-stat using synthetic NVR component feed.
A cell retention chemo-stat was required to avoid cell wash-out. […] HPLC analysis confirmed that NVR contains a high concentration (ca. 92 g/L) of valerolactone.

Data set [1] has as its system wild-type Yarrowia lipolytica. Put plainly: Chemo-stat fermentation with cell retention using NVR as carbon and energy source. The settings on record: for Flux: steady state, 2% (v/v) NVR, ~215 mL/h, biomass dilution rate ~0.025 h^-1. From the text:
The experimental set-up provided for a NVR Feed, Nutrient Feed and Base Feed (12% (v/v) NH3 (aq.)) that was filter sterilized into the fermenter via peristaltic pumps. Furthermore, a peristaltic pump provided the necessary cross-flow retentate flow rate to the hollow fibre membrane, a peristaltic pump allowed withdrawal of permeate and a peristaltic pump allowed for a biomass bleed from the fermenter.
The chemo-stat's control philosophy entailed manual feed ratio control of the NVR Feed to Nutrient Feed rates, pH control via the Base Feed, temperature control via cooling water supply to the fermenter's jacket, fixed aeration & agitation rates via the respective feedback loops, fixed cross-flow rate via the retentate pump's variable speed drive, manual level control via the permeate pump and manual dilution rate control via the bleed pump.
The initial charge minimal media was prepared (6.7 g/L yeast base without amino acids+(NH4)2SO4, 15 g/L glucose, 75 mg/L citric acid (Mr.=210 g/mol), 5.8 g/L sodium citrate (Mr.=294.1 g/mol), 10.7 g/L K2HPO4 (Mr.=174 g/mol), 5.2 g/L KH2PO4 (M=136.1 g/mol), and 2 mL/L antifoam) and the Nutrient Feed was prepared (6.7 g/L yeast base without amino acids+(NH4)2SO4, 75 mg/L citric acid (Mr.=210 g/mol), 5.8 g/L sodium citrate (Mr.=294.1 g/mol), 10.7 g/L K2HPO4 (Mr.=174 g/mol), 5.2 g/L KH2PO4 (M=136.1 g/mol), and 2 mL/L antifoam). The control parameters for the fermenter were set up (A1 and A2: 1 vvm aeration, pH 7.0, DO calibration at pH 7.0 and 1 vvm to 100% saturation, 28° C., 750 rpm initial agitation until glucose depletion, 1250 rpm final agitation after glucose depletion, manual antifoam).
The fermenter was inoculated with a 10% (v/v) inoculum from a wild-type Yarrowia lipolytica shake flask that was grown overnight from a cryopreserved stock.

The nature of data set [2]: Hydrolysis of oligomers by cutinases (drop plates). The data set is classed as biochemical. The settings on record: expressed in E. coli or Y. lipolytica; 12 hours at 28° C. From the text: Cutinases from F. solani and A. oryzae were expressed in E. coli BL21 Star with His6 tags using the pET151/D-TOPO vector and the TOPO cloning system (Invitrogen) and purified on His-trap columns. The enzymes were also expressed as secreted extracellular proteins in a Y. lipolytica host strain deficient in the extracellular lipases LIP2, LIP7 & LIP8 (See, Example 7) and the supernatants concentrated 10 fold. Activity was confirmed using p-nitrophenyl butyrate as substrate, commercial lipase as a positive control and the concentrated soluble extract from E. coli transformed with the empty vector as negative control. […] (See, FIG. 26). This is further illustrated by the increase in monomeric acids, especially in the C-6 monomer components (hydroxycaproic acid, adipic acid, caproic acid) and valeric acid, released from the oligomers when cutinases (10 μl supernatant) were incubated with 4% NVR or 4% COP acid (v/v) (1 ml) overnight (See, FIGS. 27A and B).

Data set [3] is described as follows: Lactone hydrolase activity assay (LC/MS). In kind it is biochemical. The conditions noted are these: 4% v/v substrate, pH 7.0, 60 minutes. From the text: (§1) The lactone hydrolase from Acinobacter was expressed (See, FIG. 3) as a secreted protein in Y. lipolytica with all major extracellular lipases deleted (strain JMY1212, Δlip-2,7,8,11). The secreted hydrolase was concentrated 10 fold by centrifugal filtration of the supernatant (Amicon® Ultra Ultracel® 10K). This enzyme, as well as the lactone hydrolyzing enzymes from Brevibacterium epidermidis and Euglena gracilis were also expressed in E. coli BL21 Star™ (DE3) cells as His tagged proteins using the pET151 inducible expression vector, and the enzymes were purified using HisTrap™ FF columns (GE Healthcare), and concentrated as before by centrifugal filtration to 1 ml after elution from the columns. Activity assays were performed in phosphate buffer (50 mM, pH 7.0) and ZnCl2 (75 mM) containing the substrate (valerolactone, caprolactone, NVR, or COP acid) (4% v/v). Reactions were started by adding 50 μl concentrated enzyme and incubated with shaking for 60 minutes. Reactions were terminated by the addition of 500 μl acetonitrile and analyzed by LC/MS. The buffer control contained 5% glycerol in place of enzyme. To assess hydrolysis of oligomers in COP acid, 10 μl enzyme was added to agar plates (1.5% (w/v)) containing 4% (v/v) COP acid. All experiments were performed in triplicate. […]

Data set [4] is described as follows: Lactone hydrolases incubated with NVR (LC/MS). In kind it is biochemical. The conditions noted are these: 4% v/v NVR, pH 7.0, 60 minutes.
Source text: as §1

Data set [5] in a line: Agar plate clearance zone assay on COP acid. The data set is classed as biochemical. The settings on record: lipases; 4% (v/v) COP acid, pH = 7; 1 U/well, 24 hours. From the text:
(§2) Screening methods for hydrolysis of oligomeric esters in NVR and COP acid with commercially available lipases and esterases were verified using commercially available caprolactonediol (CPL) polymers with a range of molecular weights. Two screening methods were used to identify candidate enzymes, including an agar plate assay where radial enzyme diffusion produces clearance zones if the oligomer in the agar is hydrolyzed, and a biotransformation assay in which the hydrolysis of the polymer to monomers was assayed by HPLC with UV detection or LC-MS to quantify the concentrations of monomers. […]
(§3) For plate assays, agar plates (1.5% agarose) containing 1-4% polycaprolactone (PCL), NVR or COP acid (v/v) were prepared with 50 mM citrate, Tris/HCl, or phosphate buffers to assay enzymes for hydrolytic activity at pH 3.5, 5, 7, or 8. […] Clearance zones were measured after 24 hours. […] FIG. 5 is a bar graph comparing the relative activity of esterases at different pHs as measured by the diameter of the clearance zone in the plate assay.

Data set [6] can be described thus: Agar plate clearance zone assay on NVR. The settings on record: lipases; 1% (v/v) NVR, pH = 7; 1 U/well, 24 hours. The data set is classed as biochemical.
Source text: as §2, §3

A short description of data set [7]: Plate assays, results summarised in words. The data set is classed as biochemical. The settings on record: synthetic PCL diol, NVR and/or COP acid oligomers as named in the sentence; pH 5-8. As for the experimental part:
For plate assays, agar plates (1.5% agarose) containing 1-4% polycaprolactone (PCL), NVR or COP acid (v/v) were prepared with 50 mM citrate, Tris/HCl, or phosphate buffers to assay enzymes for hydrolytic activity at pH 3.5, 5, 7, or 8. The molecular weight of PCL is 530 g/mol. Wells with a ca. 3 mm diameter were made in the plates, and enzyme added (1 U/well). Clearance zones were measured after 24 hours. Tables 3 and 4 show the results of the agar plate assay with commercial esterases and lipases, respectively, for hydrolysis of oligomers in NVR, COP acid and caprolactone polymers. […] FIG. 5 is a bar graph comparing the relative activity of esterases at different pHs as measured by the diameter of the clearance zone in the plate assay.
See, Table 3, 4 and FIG. 4.

`O=C1CCCCO1` [δ-valerolactone]: the “effect of lactone on growth of Y. lipolytica strains” value in the data set on Y. lipolytica strains is on record as “inhibitory”.
As for `CCCC(=O)O` [butyric acid], the “steady state flux of catabolism relative to the catabolism of valeric acid” value in data set [1] (Table 6) is 7%. The Flux in data set [1] was 7 % of valerate uptake.
Turning to `O=C1CCCO1` [γ-butyrolactone], the Flux in data set [1] is given as 0 % of valerate uptake.
On to `O=C(O)CCCC(=O)O` [glutaric acid], for which the Flux in data set [1] is 12 % of valerate uptake.
On the same count and under the same terms, the value for `O=C(O)CCCCCO` [6-hydroxycaproic acid] was 18 % of valerate uptake.
In the case of `O=C(O)CCCCC(=O)O` [adipic acid], the “steady state flux of catabolism relative to the catabolism of valeric acid” value in data set [1] (not told) is listed as 18%.
For “AoC: Aspergillus oryzae cutinase (EMBL D38311.1, UniProt P52956)”, the “hydrolysis of oligomers in NVR and COP acid (clearance zones)” value in data set [2] was “able to hydrolyze oligomers in NVR and COP acid”.
As to `CCCCCC(=O)O` [caproic acid], in data set [1] (Table 6), the “steady state flux of catabolism relative to the catabolism of valeric acid” value is reported as 42%. In addition, the Flux in data set [1] is reported as 42 % of valerate uptake.
Take `O=C(O)CCCCO` [5-hydroxyvaleric acid]: in data set [1], the Flux was 32 % of valerate uptake.

B1: ChnC from Acinobacter: Lactone hydrolase, GenBank AAG10029.1, SEQ ID NO:1 (protein)
chain: MNSTQSNTQFLFDLYANWSRRMQENPNMTIEDFRSMFDEWHQPTLEPEEVSYKFDVVAGVEGLWIYPKDADLSKVIIYTHGGGFAVGSSASHRKLVGHLAKYLGVSAFVVDYRRSPEHVFPAQIQDVTAVYKELLQRGFTAKNMLTAGDSAGGNLAISTVLNLRNEGIELPGAVIAFSPWLDMEHKGETLISNDATDALITVDLLKGMSQMFLGEHGDPANPLANPLKANYQVFPRLYINAGSVESLVDNATRLADIAKKEGVDVTLSVVDNMQHVFPFLAGRASEADQELAKIAQWFKA
modifications: Acinetobacter sp. SE19
Consider B1, for which, in data set [3], the lactone hydrolyzing activity entry is recorded as “highest activity”. Further, in data set [4], the “hydrolysis of valerolactone in NVR” value was “hydrolyzed valerolactone”.

B2: ChnC from Brevibacterium: Lactonohydrolase, GenBank AAK73167.2, SEQ ID NO:2 (protein, listed as Brevibacterium epidermidis)
chain: MPTSPPTVSATPMTWSSRRTGRPTSASSASTSWAGPITSSPMSSRQHRRHLGVVASGLSFPNGMVITPDGKTLIVNELFGNKITAFDIGADGKLANKRDFANFGEIGDEPDVAKRIEAATIVPDGLALDAEGAVWIANTVNQNATRIAEGGQILDTVDTAPEGIFAVALGGDDGKTLFLCAAPDWDEGARSKAREGRMLATTVAVPHAGRP
As for B2, the “hydrolysis of valerolactone in NVR” value in data set [4] is listed as “hydrolyzed valerolactone”.

B3: L7: Commercial lipase from Rhizomucor miehei (protein, UniProt P19515 95-363, looked up)
Lipase: SIDGGIRAATSQEINELTYYTTLSANSYCRTVIPGATWDCIHCDATEDLKIIKTWSTLIYDTNAMVARGDSEKTIYIVFRGSSSIRNWIADLTFVPVSYPPVSGTKVHKGFLDSYGEVQNELVATVLDQFKQYPSYKVAVTGHSLGGATALLCALDLYQREEGLSSSNLFLYTQGQPRVGDPAFANYVVSTGIPYRRTVNERDIVPHLPPAAFGFLHAGEEYWITDNSPETVQVCTSDLETSDCSNSIVPFTSVLDHLSYFGINTGLCT
As to B3, the “Substrate Clearance Zone Diameter” value is given as 2.2 in data set [5] and 1.7 in data set [6]. Further, in data set [7], the “hydrolytic activity in plate assays (in words)” value was “large clearance zones”.

These data come from patent US9783833B2, “Biocatalytic methods to convert cyclohexane oxidation process waste streams to useful products” (INVISTA NORTH AMERICA S.A. R.L., priority 2011, dated 2017).
